# Earlier results as cited in patent US20210338635A1, “Dosage Regimen for the Treatment of Multiple Sclerosis with a S1P Receptor Modulator” (Argentum Pharmaceuticals LLC, priority 2020, published 2021).
# Columns and labels:
# [1] = administration of 1.25 mg; healthy patients; treatment initiation
# [2] = humans; relapsing multiple sclerosis, oral
SMILES,decrease in heart rate [1],efficacy in the treatment of multiple sclerosis [2]
"CCc1cc(/C(C)=N/OCc2ccc(C3CCCCC3)c(C(F)(F)F)c2)ccc1CN1CC(C(=O)O)C1 [BAF-312, 1-({4-[(1E)-1-({[4-Cyclohexyl-3(trifluoromethyl)phenyl]methoxy}imino)ethyl]-2-ethylphenyl}methyl)azetidine-3-carboxylic acid]",approximately 8 beets/min,–
CCCCCCCCc1ccc(CCC(N)(CO)CO)cc1 [FTY720],–,efficacy in the treatment of multiple sclerosis has been shown in humans
